According to patent US7964631B2, “Fused tricyclic compounds as inhibitors of tumor necrosis factor-α” (Piramal Life Sciences Limited, priority 2004, dated 2011):

Legend:
[1] = test system: peripheral blood mononuclear cells (PBMC); test: Cytotoxicity of test compounds in PBMC, cell viability by MTS reagent; type: cell-based, human
Description: (§1) TNF-α production by LPS in peripheral blood mononuclear cells (PBMC) was measured according to the method described by Henry et al (J. Bioorg. Med. Chem. Lett., 8: 3335-3340, 1998). Briefly, blood was collected from healthy donors into Potassium EDTA vacutainer tubes (Vacutest Plast/Becton Dickinson). PBMC were isolated using gradient centrifugation in Ficoll-Paque solution (Pharmacia). Isolated PBMC were suspended in RPMI 1640 culture medium (Gibco BRL, Pasley, UK) containing 10% fetal bovine serum (FBS) (Hyclone, Utah, USA), 100 U/ml penicillin (Sigma Chemical Co. St Louis, Mo.) and 100 μg/ml streptomycin (Sigma Chemical Co. St Louis, Mo.). The cell concentration was adjusted to 1×10^6 cells/ml. The viability as determined by trypan blue dye exclusion was uniformly ≧98%. The cell suspension (100 μl) was added to the wells of a 96-well culture plate. Following cell plating, 79 μl of the culture medium and 1 μl of eight different concentrations of the test compounds (final concentration 0.03, 0.1, 0.3, 1, 3, 10, 30, 100 μM) dissolved in DMSO (dimethylsulfoxide, Sigma, Mo., USA) were added to the cells. The final concentration of DMSO was adjusted to 0.5%. The appropriate DMSO concentration was used as control. Rolipram (30 μM) was used as a standard compound. The plates were incubated for 30 min at 37° C. in an atmosphere of 5% CO2. Finally, 20 μl (10 μg/ml) per well of LPS, (Escherchia coli 0127:B8, Sigma Chemical Co., St. Louis, Mo.) was added, for a final concentration of 1 μg/ml. The plates were incubated at 37° C. for 4.5 h in an atmosphere of 5% CO2. To determine the cytotoxicity of the test compounds, the cell viability was assessed using MTS (3-(4,5-dimethylthiazol-2-yl)-5-(3-carboxymethoxyphenyl)-2-(4-sulfonyl)-2H-tetrazolium) reagent (Promega) after 4.5 h of incubation. Supernatants were harvested and assayed for TNF-α by ELISA as described by the manufacturer (R&D Systems, MN, BD Biosciences Pharmingen) or by cytotoxicity bioassay in L929 cells. The 50% inhibitory concentration (IC50) values were calculated by a nonlinear regression method using GraphPad software (Prism 3.03)

[2] = test system: TNF-α; test: Whole blood cell culture assay: LPS-induced TNF-α release (primary screening); type: cell-based, human; conditions: test compound 1 μM, diluted whole blood of healthy donors, LPS 1 μg/ml, 4.5 h, vs DMSO control; for inhibition at 1 µM: Homo sapiens, Whole blood cell
Description: TNF-α production by lipopolysaccharide (LPS) in whole blood was measured according to the method described by Wilson et al (J. Immunol. Methods, 139: 233-240, 1991). Briefly, blood was collected from healthy donors into potassium EDTA vacutainer tubes (Vacutest Plast/Becton Dickinson) and diluted with RPMI 1640 culture medium (Gibco BRL, Pasley, UK) containing 100 U/ml penicillin and 100 μg/ml streptomycin, (100× solution, Sigma Chemical Co. St Louis, Mo.) with no added serum. The white blood cell count was adjusted to 1×10^6 cells/ml and 100 μl/well of the diluted blood was transferred into 96-well culture plates. Following cell plating, 79 μl of culture medium and 1 μl of the test compounds (final concentration 1 μM) dissolved in DMSO (dimethylsulfoxide, Sigma, Mo., USA) was added to the cells. The final concentration of DMSO was adjusted to 0.5%. 1 μl of vehicle (0.5% DMSO) was used as control. Rolipram (100 μM) was used as a standard compound. The plates were incubated for 30 min at 37° C. in an atmosphere of 5% CO2. Finally, 20 μl (10 μg/ml) per well of LPS (Escherchia coli 0127:B8, Sigma Chemical Co., St. Louis, Mo.) was added, for a final concentration of 1 μg/ml. Plates were incubated at 37° C. for 4.5 h in an atmosphere of 5% CO2. Supernatants were harvested and assayed for TNF-α by ELISA as described by the manufacturer (R&D Systems, MN) or by cytotoxicity bioassay in L929 cells. Percent inhibition of TNF-α release in comparison to the control was calculated.

[3] = test system: TNF-α; test: LPS-induced TNF-α production in peripheral blood mononuclear cells (secondary screening); type: cell-based
Description: as §1

[4] = 4.5 h, TNF-α production in PBMC, LPS 1 μg/ml, ELISA or L929 bioassay

melting point	IC50 [3, 4] [µM]	SMILES	% toxicity (10 μM), 5 h [1] [%]	other results
199 to 201 °C	–	COC(=O)c1cc(C)c2c(c1)S(=O)(=O)Cc1cc(N(CCO)CCO)cc(Cl)c1O2 [Example 13, 2-[Bis-(2-hydroxy-ethyl)-amino]-4-chloro-6-methyl-10,10-dioxo-10,11-dihydro-5-oxa-10lambda*6*-thia-dibenzo[a,d]cycloheptene-8-carboxylic acid methyl ester]	–	–
258 to 262 °C (dec.)	2.6	COC(=O)c1cc(C)c2c(c1)S(=O)(=O)Cc1cc(NC=O)cc(Cl)c1O2 [Example 9, 4-Chloro-2-formylamino-6-methyl-10,10-dioxo-10,11-dihydro-5-oxa-10lambda*6*-thia-dibenzo[a,d]cycloheptene-8-carboxylic acid methyl ester]	09	inhibition at 1 µM [2]: 31%
–	8.6 ± 1.3	COC(=O)c1cc(C)c2c(c1)S(=O)(=O)Cc1cc(NC(=O)CO)cc(Cl)c1O2 [Example 5A, 4-Chloro-2-(2-hydroxy-acetylamino)-6-methyl-10,10-dioxo-10,11-dihydro-5-oxa-10lambda*6*-thia-dibenzo[a,d]cycloheptene-8-carboxylic acid methyl ester]	00	–
279 to 281 °C	–	COC(=O)c1cc(C)c2c(c1)S(=O)(=O)Cc1cc(N3CCNCC3)cc(Cl)c1O2.CS(=O)(=O)O [Example 17, 4-Chloro-6-methyl-10,10-dioxo-2-piperazin-1-yl-10,11-dihydro-5-oxa-10lambda*6*-thia-dibenzo[a,d]cycloheptene-8-carboxylic acid methyl ester mesylate]	66	IC50 ([3]; TNF-α production in PBMC; LPS 1 μg/ml, 4.5 h; ELISA or L929 bioassay; mesylate): 0.1 µM
190 to 191 °C	–	COC(=O)c1cc(C)c2c(c1)S(=O)(=O)Cc1cc(N(CCCl)CCCl)cc(Cl)c1O2	–	–
> 320 °C	0.55	COC(=O)c1cc(C)c2c(c1)[S+]([O-])Cc1cc(N3CCNCC3)cc(Cl)c1O2.Cl (stereo not drawn) [Example 15, 4-Chloro-6-methyl-10-oxo-2-piperazin-1-yl-10,11-dihydro-5-oxa-10lambda*4*-thia-dibenzo[a,d]cycloheptene-8-carboxylic acid methyl ester hydrochloride]	25	–
> 320 °C	–	COC(=O)c1cc(C)c2c(c1)S(=O)(=O)Cc1cc(N3CCOCC3)cc(Cl)c1O2 [Example 30, 4-Chloro-6-methyl-2-morpholin-4-yl-10,10-dioxo-10,11-dihydro-5-oxa-10lambda*6*-thia-dibenzo[a,d]cycloheptene-8-carboxylic acid methyl ester]	–	–
–	–	COC(=O)c1cc(C)c2c(c1)S(=O)(=O)Cc1cc(NC=O)cc(Cl)c1N2 [Example 38, 4-Chloro-2-formylamino-6-methyl-10,10-dioxo-10,11-dihydro-5H-10-lambda*6*-thia-5-aza-dibenzo[a,d]-cycloheptene-8-carboxylic acid methyl ester]	10 ± 04	% inhibition of TNF-α release [2]: 45%; IC50 ([3]; TNF-α production in PBMC; LPS 1 μg/ml, 4.5 h; ELISA or L929 bioassay): 1.2 ± 1.58 µM
202 to 204 °C	–	CCOC(=O)c1cc(C)c2c(c1)S(=O)(=O)Cc1cc(NC=O)cc(Cl)c1O2 [Example 10, 4-Chloro-2-formylamino-6-methyl-10,10-dioxo-10,11-dihydro-5-oxa-10lambda*6*-thia-dibenzo[a,d]cycloheptene-8-carboxylic acid ethyl ester]	–	–
292 to 293 °C	–	COC(=O)c1cc(C)c2c(c1)S(=O)(=O)Cc1cc(NC(=O)CCl)cc(Cl)c1O2 [Example 4, 4-Chloro-2-(2-chloro-acetylamino)-6-methyl-10,10-dioxo-10,11-dihydro-5-oxa-10lambda*6*-thia-dibenzo[a,d]cycloheptene-8-carboxylic acid methyl ester]	–	–
226 to 228 °C	–	CCC(=O)Nc1cc(Cl)c2c(c1)CS(=O)(=O)c1cc(C(=O)OC)cc(C)c1O2 [Example 6, 4-Chloro-6-methyl-10,10-dioxo-2-propionylamino-10,11-dihydro-5-oxa-10lambda*6*-thia-dibenzo[a,d]cycloheptene-8-carboxylic acid methyl ester]	–	inhibition at 1 µM [2]: 89%
230 to 232 °C	–	CCN1CCN(c2cc(Cl)c3c(c2)CS(=O)(=O)c2cc(CO)cc(C)c2O3)CC1 [Example 34, [4-Chloro-2-(4-ethyl-piperazin-1-yl)-6-methyl-10,10-dioxo-10,11-dihydro-5-oxa-10lambda*6*-thia-dibenzo[a,d]cyclohepten-8-yl]-methanol]	–	–
–	> 10	COC(=O)c1ccc2c(c1)S(=O)(=O)Cc1ccccc1C2O (stereo not drawn) [Example 40, 5-Hydroxy-10,10-dioxo-10,11-dihydro-5H-10lambda*6*-thia-dibenzo[a,d]cycloheptene-8-carboxylic acid methyl ester]	8	–
–	0.84	COC(=O)c1cc(C)c2c(c1)S(=O)(=O)Cc1ccc(NCCN)c(Cl)c1O2.Cl [Example 31, 3-(2-Amino-ethylamino)-4-chloro-6-methyl-10,10-dioxo-10,11-dihydro-5-oxa-10lambda*6*-thia-dibenzo[a,d]cycloheptene-8-carboxylic acid methyl ester hydrochloride]	21	inhibition at 1 µM [2]: 66%
278 to 280 °C	–	COC(=O)c1cc(C)c2c(c1)S(=O)(=O)Cc1cc(N)cc(Cl)c1N2 [Example 37, 2-Amino-4-chloro-6-methyl-10,10-dioxo-10,11-dihydro-5H-10lambda*6*-thia-5-aza-dibenzo[a,d]-cycloheptene-8-carboxylic acid methylester]	–	inhibition at 1 µM [2]: 33%
278 to 280 °C	–	CS(=O)(=O)O.Cc1cc(C(=O)O)cc2c1Oc1c(Cl)cc(N3CCNCC3)cc1CS2(=O)=O [Example 19, 4-Chloro-6-methyl-10,10-dioxo-2-piperazin-1-yl-10,11-dihydro-5-oxa-10lambda*6*-thia-dibenzo[a,d]cycloheptene-8-carboxylic acid mesylate]	–	–

SMILES	melting point	IC50 [3, 4] [µM]	% toxicity (10 μM), 5 h [1] [%]	other results
COC(=O)c1cc(C)c2c(c1)S(=O)(=O)Cc1cc(NC(=O)COC(C)=O)cc(Cl)c1O2 [Example 5B, 2-(2-Acetoxy-acetylamino)-4-chloro-6-methyl-10,10-dioxo-10,11-dihydro-5-oxa-10lambda*6*-thia-dibenzo[a,d]cycloheptene-8-carboxylic acid methyl ester]	–	9.1 ± 1.6	00	–
Cc1cc(C=O)cc2c1Oc1c(Cl)cc(N3CCNCC3)cc1CS2(=O)=O [Example 35, 4-Chloro-6-methyl-10,10-dioxo-2-piperazin-1-yl-10,11-dihydro-5-oxa-10lambda*6*-thia-dibenzo[a,d]cycloheptene-8-carbaldehyde]	–	1.4	07	inhibition at 1 µM [2]: 45%
